Experimental data: PMC2361662 (British Journal of Cancer, 2005)

What was measured:
[1] = system: EGFRvIII-expressing cells; design: method as in Montgomery, 2002; conditions: ref Montgomery, 2002; cited from earlier work
LN229/EGFR cells = system: LN229/EGFR cells; design: method as in Li et al (2003); conditions: ref Li et al (2003); cited from earlier work
STAT3 = STAT3 phosphorylation, immunoblot; assay type: cell-based; conditions: NR6M cells (EGFRvIII-expressing)
Description: (§1) For determination of phosphorylated proteins, 5 μg whole cell lysate from serum-starved cells was resolved by SDS–PAGE and electroblotted onto nitrocellulose membranes. After transfer and blocking in 5% nonfat milk, primary antibody staining was carried out by incubation overnight at 4°C, and secondary antibody staining was for 1 h at room temperature. The chemiluminescence detection method (ECL) was used for all Western blot experiments.
(§2) Extracellular regulated kinase-1 and -2 (ERK-2), phospholipase C γ (PLC-γ), protein kinase B (AKT) and the signal transducer and activator of transcription 3 (STAT3) are all essential downstream targets of EGFR and mediate many of its oncogenic effects.
(§3) Figure 3 (A) Phosphorylation of key signalling molecules upon EGF (10 nM for 10 min) stimulation in the four cell lines.

ERK = ERK phosphorylation, immunoblot; assay type: cell-based
Description: as §1, §2, §3

COc1cc2ncnc(Nc3cccc(Cl)c3)c2cc1OC [AG1478]
Concentration that stimulated colony formation [1]: 0.1 µM

COc1cc2ncnc(Nc3cccc(Br)c3)c2cc1OC [PD153035]
Concentration that stimulated proliferation (LN229/EGFR cells): 0.05 µM

COc1cc2ncnc(Nc3ccc(F)c(Cl)c3)c2cc1OCCCN1CCOCC1 [gefitinib]
Effect on background level of STAT3 phosphorylation (STAT3): no effect
Effect on ERK phosphorylation (ERK; NR6M cells, 0.1 μM gefitinib, after 48 and 72 h): increased
Response of ERK phosphorylations to gefitinib (ERK; NR6W cells, up to the highest concentrations (2 μM)): unresponsive
